Results taken from patent US20090304825A1, “ESTROGENIC EXTRACTS FOR USE IN TREATING VAGINAL AND VULVAR ATROPHY” (Bionovo, Inc., priority 2008, published 2009).

Legend:
[1] = target: estrogen receptor beta (ERβ) (Homo sapiens, UniProt Q92731); assay: Estrogen receptor subtype transcriptional activation (studies, method not described); type: cell-based; conditions: "Studies have shown"
[2] = test system: either receptor (ERα, ERβ); assay: Antagonistic effect on estrogen receptors (method not described); type: cell-based
[3] = target: T1, ERβ (Homo sapiens, UniProt Q92731); conditions: in the presence of ERβ
[4] = test system: TNF-RE tkLuc; assay: Antiestrogen effect on TNF-RE tkLuc; type: cell-based; conditions: for effect on the repression induced by E2: TNF-RE tkLuc; for activation of TNF-RE tkLuc: antiestrogens, in contrast to E2
Description: […]. […] […].

[5] = test system: both estrogen receptor subtypes; assay: Binding to estrogen receptor subtypes (method not described); conditions: "Studies have shown"
[6] = target: T1, ERβ; assay: ERE-tk-Luc activation in U2OS osteosarcoma cells co-transfected with ERβ; type: cell-based; set-up: expressed in transfected cells; host or cells: U2OS osteosarcoma cells
Description: FIGS. 1A-1C. […] (Amarathaceae).

[7] = several small randomized trials; cited from earlier work
[8] = test system: oopherectomized mice; assay: Intra-vaginal administration to oopherectomized mice, vaginal and endometrial histology; type: in vivo
Description: The glands form back to back without intervening stroma. […] In one area, the glands arise in what appears to be a polyp with a broad stalk and thick fibrovascular core.

estrogen receptor beta (ERβ), sequence (Q92731 whole entry): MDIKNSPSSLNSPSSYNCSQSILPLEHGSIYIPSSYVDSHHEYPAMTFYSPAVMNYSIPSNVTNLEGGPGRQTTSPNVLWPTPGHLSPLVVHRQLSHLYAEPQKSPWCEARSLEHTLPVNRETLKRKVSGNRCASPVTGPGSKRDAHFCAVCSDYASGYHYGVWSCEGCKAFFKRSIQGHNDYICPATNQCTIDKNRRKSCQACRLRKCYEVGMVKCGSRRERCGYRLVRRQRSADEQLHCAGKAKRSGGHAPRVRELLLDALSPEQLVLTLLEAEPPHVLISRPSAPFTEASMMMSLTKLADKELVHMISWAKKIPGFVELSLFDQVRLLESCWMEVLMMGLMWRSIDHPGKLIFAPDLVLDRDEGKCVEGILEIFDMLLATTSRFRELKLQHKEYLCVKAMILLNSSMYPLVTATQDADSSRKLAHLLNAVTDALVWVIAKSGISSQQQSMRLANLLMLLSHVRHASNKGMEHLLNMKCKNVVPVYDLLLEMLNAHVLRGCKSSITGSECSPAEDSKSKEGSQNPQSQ
T1 sequence (Q92731 whole entry): as above

Molecule	ER subtype transcriptional activation [1]	antagonistic effect on either receptor [2]	effect on the repression induced by E2 [4]	activation of TNF-RE tkLuc [4] [fold]	other results
COc1ccc(-c2coc3cc(O)ccc3c2=O)cc1O [Calycosin]	ERβ selective transcriptional activation	does not have an antagonistic effect on either receptor	–	–	–
C[C@]12CC[C@@H]3c4ccc(O)cc4CC[C@H]3[C@@H]1CC[C@@H]2O [E2, estradiol]	–	–	–	–	repression of TNF-α activation of TNF-RE tkLuc [3]: 60-80%
C[C@]12CC[C@@H]3c4ccc(O)cc4C[C@@H](CCCCCCCCC[S+]([O-])CCCC(F)(F)C(F)(F)F)[C@H]3[C@@H]1CC[C@@H]2O (some centres unmarked) [ICI 182, 780]	–	–	abolished the repression induced by E2	2	–
C=CC(/C=C\c1ccc(O)cc1)c1ccc(O)cc1 (centres unmarked) [Nyasol]	ERβ transcriptional activation only	does not have an antagonistic effect on either receptor	–	–	binding affinity to estrogen receptor subtypes [5]: binds with equal affinity to both estrogen receptor subtypes; activation of ERE-tk-Luc relative to estradiol (E2) ([6]; compared with 10 nM E2): activation equivalent to 10 nM estradiol; activation in the presence of ER antagonists ([6]; raloxifene (Ral), tamoxifen (Tam), b208 also ICI 182, 780): blocked the activation
COc1c(O)cc2c(=O)c3c(oc2c1O)oc1c(O)cccc13 [TCIF, tetracyclic isoflavone]	estrogen receptor beta (ERβ) selective transcriptional activation	does not have an antagonistic effect on either receptor	–	–	–
Oc1ccc2c(c1)CC[C@H](c1ccccc1)[C@@H]2c1ccc(OCCN2CCCC2)cc1 [lasofoxifene]	–	–	–	–	vaginal maturation indices and vaginal pH relative to placebo [7]: improvements in vaginal maturation indices and vaginal pH
O=C(c1ccc(OCCN2CCCCC2)cc1)c1c(-c2ccc(O)cc2)sc2cc(O)ccc12 [raloxifene]	–	–	abolished the repression induced by E2	2	antagonist effect on the activation by herbal extracts and active ingredients in VG101 ([6]; ERE-tk-Luc): blocked the activation
CC/C(=C(\c1ccccc1)c1ccc(OCCN(C)C)cc1)c1ccccc1 [tamoxifen]	–	–	abolished the repression induced by E2	2	–
estrogen	–	–	–	–	endometrium histology ([8]; mouse model, compared to controls): endomyometrium (the equivalent of complex atypical hyperplasia in women, worrisome for in situ carcinoma); vaginal epithelium histology ([8]; oopherectomized mice, intra-vaginal, VG101 0.5 mg/day for 10 days): squamous epithelium with hyperkeratosis
